Laboratory results reported in patent US20200190151A1, “KV1.3-BLOCKING VENOM PEPTIDE VARIANTS AND RELATED USES” (The Scripps Research Institute, priority 2016, published 2020).
Entries after “also recorded” stand apart in the source; their conditions may differ. Where two headings read alike, the source gives them in different places.

Legend:
Kv1.3 channel [1] = format: cell-based, human
Kv1.3 channel [2] = biological target: T1, Kv1.3 channel (Homo sapiens, UniProt P22001); experiment: Whole-cell patch clamp electrophysiology, HEK293 Kv1.3 stable cells; format: cell-based
T1 construct: expressed in transfected cells
T1 sequence (P22001 whole entry): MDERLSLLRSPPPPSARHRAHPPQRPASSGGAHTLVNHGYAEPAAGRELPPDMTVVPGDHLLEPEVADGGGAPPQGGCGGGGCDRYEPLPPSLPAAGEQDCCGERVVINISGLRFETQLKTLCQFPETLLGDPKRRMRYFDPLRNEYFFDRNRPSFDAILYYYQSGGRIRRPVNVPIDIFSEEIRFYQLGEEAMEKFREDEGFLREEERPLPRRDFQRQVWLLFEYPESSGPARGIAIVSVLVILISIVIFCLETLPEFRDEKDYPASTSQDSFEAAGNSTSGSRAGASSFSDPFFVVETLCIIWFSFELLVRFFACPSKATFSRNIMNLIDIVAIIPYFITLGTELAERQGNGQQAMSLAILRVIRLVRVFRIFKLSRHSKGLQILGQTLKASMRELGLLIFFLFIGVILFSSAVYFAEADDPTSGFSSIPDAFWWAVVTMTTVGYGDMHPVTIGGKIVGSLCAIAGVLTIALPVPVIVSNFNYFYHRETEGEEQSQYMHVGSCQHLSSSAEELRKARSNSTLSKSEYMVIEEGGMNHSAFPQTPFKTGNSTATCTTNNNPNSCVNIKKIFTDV
Procedure: (§1) The variegated region of each variant was extracted based on the known flanking sequences. The ratio between number of unique toxins and count of all reads represented the diversity of a selected library. Highly enriched variants versus those that were not enriched were chosen and their affinity to Kv1.3 were assessed and ranked. In general, the enrichment factor of a variant is positively correlated with its affinity to Kv1.3 (FIG. 4). […] To test the critical property of specificity, patch clamp analysis of S1-2 was also carried out on HEK293 cells expressing other Kv1 family members including Kv1.1 through Kv1.7 and the hERG channel.
(§2) Electrophysiology recording: HEKA EPC 10 USB patch clamp amplifier (from HEKA Elektronik, Germany) was used for the whole cell recording. A cover slip with abundant single HEK293 Kv1.3 stable cells on the surface was removed and placed into a continuously perfused (approximately 1-2 ml/minute) recording chamber mounted on an inverted microscope. The Kv1.3 current was recorded from single cell using standard whole cell recording techniques. The cell was voltage clamped at a holding potential of −80 mV. Outward potassium currents were measured using the whole-cell configuration of the patch clamp technique at a test potential of 40 mV from a holding potential of −80 mV. Current records were acquired at 2-5 KHz and filtered at 1-2 KHz. […]

Kv1.1 = biological target: T2, Kv1.1 (Homo sapiens, UniProt Q09470); experiment: Patch clamp on HEK293 cells expressing Kv1.1; format: cell-based
T2 construct: expressed in transfected cells; host or cells: HEK293
T2 sequence (Q09470 whole entry): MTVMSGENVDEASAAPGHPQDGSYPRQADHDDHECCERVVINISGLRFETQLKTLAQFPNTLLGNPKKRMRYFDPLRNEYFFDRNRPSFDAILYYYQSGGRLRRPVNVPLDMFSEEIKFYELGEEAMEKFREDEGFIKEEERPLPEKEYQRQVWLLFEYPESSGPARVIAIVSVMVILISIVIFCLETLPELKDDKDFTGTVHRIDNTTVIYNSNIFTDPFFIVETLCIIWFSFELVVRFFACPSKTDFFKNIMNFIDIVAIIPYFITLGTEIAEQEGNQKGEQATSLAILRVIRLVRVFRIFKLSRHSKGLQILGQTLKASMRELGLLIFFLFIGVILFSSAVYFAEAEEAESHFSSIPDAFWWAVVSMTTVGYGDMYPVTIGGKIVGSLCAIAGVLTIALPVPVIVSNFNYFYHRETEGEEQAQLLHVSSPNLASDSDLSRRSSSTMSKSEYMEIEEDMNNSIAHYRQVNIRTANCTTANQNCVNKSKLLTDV
Procedure: as §1, §2

Kv1.6 = biological target: T3, Kv1.6 (Homo sapiens, UniProt P17658); experiment: Patch clamp on HEK293 cells expressing Kv1.6; format: cell-based
T3 construct: expressed in transfected cells; host or cells: HEK293
T3 sequence (P17658 whole entry): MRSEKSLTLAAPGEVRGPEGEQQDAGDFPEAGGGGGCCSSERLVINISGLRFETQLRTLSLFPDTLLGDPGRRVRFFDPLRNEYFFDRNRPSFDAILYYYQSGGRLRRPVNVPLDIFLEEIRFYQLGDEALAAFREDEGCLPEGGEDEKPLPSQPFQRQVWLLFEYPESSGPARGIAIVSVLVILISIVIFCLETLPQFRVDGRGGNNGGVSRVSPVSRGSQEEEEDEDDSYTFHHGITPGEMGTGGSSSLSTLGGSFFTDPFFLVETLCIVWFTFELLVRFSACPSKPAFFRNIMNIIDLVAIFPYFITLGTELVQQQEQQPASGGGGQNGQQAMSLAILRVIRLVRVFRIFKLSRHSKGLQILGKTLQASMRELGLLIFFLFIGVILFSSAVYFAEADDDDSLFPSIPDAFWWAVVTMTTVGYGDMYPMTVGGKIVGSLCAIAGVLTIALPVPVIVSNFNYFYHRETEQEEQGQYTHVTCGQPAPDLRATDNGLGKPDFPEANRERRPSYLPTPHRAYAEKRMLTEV
Procedure: as §1, §2

[3] = lentivirus encoding membrane tethered peptide

Kv1.3 channel, sequence (P22001 53-575 limits assumed): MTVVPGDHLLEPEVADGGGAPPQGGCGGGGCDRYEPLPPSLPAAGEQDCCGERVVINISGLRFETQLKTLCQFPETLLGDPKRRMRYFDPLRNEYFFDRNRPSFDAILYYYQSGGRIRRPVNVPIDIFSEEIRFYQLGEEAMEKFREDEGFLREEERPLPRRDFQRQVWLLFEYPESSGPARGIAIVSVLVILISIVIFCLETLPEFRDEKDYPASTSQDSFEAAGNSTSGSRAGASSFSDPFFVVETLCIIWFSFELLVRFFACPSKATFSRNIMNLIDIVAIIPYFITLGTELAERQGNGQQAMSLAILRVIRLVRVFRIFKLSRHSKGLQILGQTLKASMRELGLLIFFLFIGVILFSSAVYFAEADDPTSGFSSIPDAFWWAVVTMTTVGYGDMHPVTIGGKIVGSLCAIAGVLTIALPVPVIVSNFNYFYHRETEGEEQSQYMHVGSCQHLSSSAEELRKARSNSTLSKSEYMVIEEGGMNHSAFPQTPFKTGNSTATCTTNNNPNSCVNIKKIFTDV

Substance: Anuroctoxin
- Activation of tdTomato reporter in Kv1.3 reporter cells, in words (Kv1.3 channel [1]; [3]): stimulated the Kv1.3 reporter cells to express tdTomato fluorescent protein

Substance: CllTx1 (ITINVKCTSPQQCLRPCKDRFGQHAGGKCINGKCKCYP)
- Block / inhibition of Kv1.3 channel, in words (Kv1.3 channel [2]): strongly blocked; also recorded: potently blocked

Substance: Exendin-4: GLP-1 receptor targeting peptide, negative control lentivirus
- Activation of tdTomato reporter in Kv1.3 reporter cells, in words (Kv1.3 channel [1]; [3]): no activity

Substance: ShK
- Block / inhibition of Kv1.3 channel, in words (Kv1.3 channel [2]): comparable inhibition
- Effect on Kv1.1, in words (Kv1.1): comparable inhibition
- Effect on Kv1.6, in words (Kv1.6): comparable inhibition
- Activation of tdTomato reporter in Kv1.3 reporter cells, in words (Kv1.3 channel [1]; [3]): stimulated the Kv1.3 reporter cells to express tdTomato fluorescent protein

Substance: Vc1.1
- Activation of tdTomato reporter in Kv1.3 reporter cells, in words (Kv1.3 channel [1]): no activity
